Assay results from ChEMBL document CHEMBL1133372, “Mechanistic studies on type I and type II dehydroquinase with (6R)- and (6S)-6-fluoro-3-dehydroquinic acids” (Bioorg Med Chem Lett, 2000).

Tests used:
[1] = molecular target: T1, 3-dehydroquinate dehydratase (Escherichia coli K-12) (UniProt P05194); assay: Kcat value was evaluated against type 1 Dehydroquinase of Escherichia coli
T1 sequence (whole entry): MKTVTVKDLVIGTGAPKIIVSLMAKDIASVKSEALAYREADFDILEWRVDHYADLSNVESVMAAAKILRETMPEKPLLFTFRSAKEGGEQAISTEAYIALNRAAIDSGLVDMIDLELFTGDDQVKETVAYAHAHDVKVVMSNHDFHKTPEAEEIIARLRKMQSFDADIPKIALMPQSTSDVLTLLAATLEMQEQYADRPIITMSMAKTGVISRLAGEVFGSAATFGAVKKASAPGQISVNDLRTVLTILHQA

[2] = tested on: Mycobacterium tuberculosis; assay: The compound was evaluated for its kinetic parameter (Km) against type 2 Dehydroquinase of Mycobacterium tuberculosis
[3] = tested on: Mycobacterium tuberculosis; assay: Kcat value was evaluated against type 2 Dehydroquinase of Mycobacterium tuberculosis
[4] = molecular target: T1, 3-dehydroquinate dehydratase (Escherichia coli K-12); assay: Kcat / Km value was evaluated against type 1 Dehydroquinase of Escherichia coli
Aspergillus nidulans [5] = assay: Kcat value was evaluated against type 2 Dehydroquinase of Aspergillus nidulans
Aspergillus nidulans [6] = assay: The compound was evaluated for its kinetic parameter (Km) against type 2 Dehydroquinase of Aspergillus nidulans

O=C1CC(O)(C(=O)O)C(F)C(O)C1O (stereo in doubt; 3)
k cat [1]: 36 s⁻¹
Km [2]: 7.9 µM
k cat [3]: 1.1 s⁻¹
k cat/Km [4]: 310000 M⁻¹ s⁻¹
k cat (Aspergillus nidulans [5]): 46 s⁻¹
Km (Aspergillus nidulans [6]): 50 µM

O=C1CC(O)(C(=O)O)CC(O)C1O (stereo unspecified)
Km [2]: 13 µM
k cat [3]: 2.6 s⁻¹
k cat (Aspergillus nidulans [5]): 313 s⁻¹
Km (Aspergillus nidulans [6]): 122 µM

O=C1CC(O)(C(=O)O)C(F)C(O)C1O (stereo in doubt; 2)
k cat [1]: 3 s⁻¹
Km [2]: 3.6 µM
k cat [3]: 0.14 s⁻¹
k cat/Km [4]: 310000 M⁻¹ s⁻¹
k cat (Aspergillus nidulans [5]): 4.6 s⁻¹
Km (Aspergillus nidulans [6]): 39 µM
